Measured values from patent US9670514B2, “Method for producing polysaccharide” (SANYO CHEMICAL INDUSTRIES, LTD., priority 2011, dated 2017).

Target: T1, cellulose synthase (Novacetimonas hansenii, UniProt Q59167)
T1 construct: FLAG; made in house; host or cells: Escherichia coli SURE, as in Preparation 1
Experiment: Inhibitory concentration IC50 against cellulose synthase
Format: biochemical, acetic acid bacteria
Settings: cellulose synthase (B-3) 1.5 U/mL
Method: Hyaluronan synthase aqueous solution (B-1) obtained in Preparation 1 was dissolved to a concentration of 1.5 U/mL in 940 μL of aqueous solution 1 (50 mM phosphate buffer (pH of 7.5, 25° C.) containing 5 mM magnesium chloride and 0.05 mM sodium uridine diphosphate) in a 1.5 mL-tube. The tube was allowed to stand at 40° C. for 20 minutes in a constant temperature water bath. To the tube was added 50 μL of temperature-adjusted (40° C.) substrate solution [1-1] (a solution obtained by dissolving uridine diphosphate-glucuronic acid sodium salt and uridine diphosphate-N-acetylglucosamine both to a concentration of 20 mM in buffer solution B (50 mM phosphate buffer, pH of 7.5, 25° C.)). Thereby, enzyme reaction solution (I-1) was obtained. […] The supernatant (80 μL) was analyzed by HPLC under the following conditions, and the peak areas of hyaluronan were recorded. […]
The inhibitory concentration IC50 was measured in a similar manner as in “Measurement of the inhibitory concentration IC50 against hyaluronan synthase”, except that “cellulose synthase aqueous solution (B-3) obtained in Preparation 12” was used in place of “hyaluronan synthase aqueous solution (B-1) obtained in Preparation 1”, “substrate solution [1-3] […]
The inhibitory concentration IC50 was also determined in a similar manner, except that the amount of cellulose synthase aqueous solution (B-3) was changed from 1.5 U/mL to 45 U/mL. […]

T1 sequence (Q59167 whole entry): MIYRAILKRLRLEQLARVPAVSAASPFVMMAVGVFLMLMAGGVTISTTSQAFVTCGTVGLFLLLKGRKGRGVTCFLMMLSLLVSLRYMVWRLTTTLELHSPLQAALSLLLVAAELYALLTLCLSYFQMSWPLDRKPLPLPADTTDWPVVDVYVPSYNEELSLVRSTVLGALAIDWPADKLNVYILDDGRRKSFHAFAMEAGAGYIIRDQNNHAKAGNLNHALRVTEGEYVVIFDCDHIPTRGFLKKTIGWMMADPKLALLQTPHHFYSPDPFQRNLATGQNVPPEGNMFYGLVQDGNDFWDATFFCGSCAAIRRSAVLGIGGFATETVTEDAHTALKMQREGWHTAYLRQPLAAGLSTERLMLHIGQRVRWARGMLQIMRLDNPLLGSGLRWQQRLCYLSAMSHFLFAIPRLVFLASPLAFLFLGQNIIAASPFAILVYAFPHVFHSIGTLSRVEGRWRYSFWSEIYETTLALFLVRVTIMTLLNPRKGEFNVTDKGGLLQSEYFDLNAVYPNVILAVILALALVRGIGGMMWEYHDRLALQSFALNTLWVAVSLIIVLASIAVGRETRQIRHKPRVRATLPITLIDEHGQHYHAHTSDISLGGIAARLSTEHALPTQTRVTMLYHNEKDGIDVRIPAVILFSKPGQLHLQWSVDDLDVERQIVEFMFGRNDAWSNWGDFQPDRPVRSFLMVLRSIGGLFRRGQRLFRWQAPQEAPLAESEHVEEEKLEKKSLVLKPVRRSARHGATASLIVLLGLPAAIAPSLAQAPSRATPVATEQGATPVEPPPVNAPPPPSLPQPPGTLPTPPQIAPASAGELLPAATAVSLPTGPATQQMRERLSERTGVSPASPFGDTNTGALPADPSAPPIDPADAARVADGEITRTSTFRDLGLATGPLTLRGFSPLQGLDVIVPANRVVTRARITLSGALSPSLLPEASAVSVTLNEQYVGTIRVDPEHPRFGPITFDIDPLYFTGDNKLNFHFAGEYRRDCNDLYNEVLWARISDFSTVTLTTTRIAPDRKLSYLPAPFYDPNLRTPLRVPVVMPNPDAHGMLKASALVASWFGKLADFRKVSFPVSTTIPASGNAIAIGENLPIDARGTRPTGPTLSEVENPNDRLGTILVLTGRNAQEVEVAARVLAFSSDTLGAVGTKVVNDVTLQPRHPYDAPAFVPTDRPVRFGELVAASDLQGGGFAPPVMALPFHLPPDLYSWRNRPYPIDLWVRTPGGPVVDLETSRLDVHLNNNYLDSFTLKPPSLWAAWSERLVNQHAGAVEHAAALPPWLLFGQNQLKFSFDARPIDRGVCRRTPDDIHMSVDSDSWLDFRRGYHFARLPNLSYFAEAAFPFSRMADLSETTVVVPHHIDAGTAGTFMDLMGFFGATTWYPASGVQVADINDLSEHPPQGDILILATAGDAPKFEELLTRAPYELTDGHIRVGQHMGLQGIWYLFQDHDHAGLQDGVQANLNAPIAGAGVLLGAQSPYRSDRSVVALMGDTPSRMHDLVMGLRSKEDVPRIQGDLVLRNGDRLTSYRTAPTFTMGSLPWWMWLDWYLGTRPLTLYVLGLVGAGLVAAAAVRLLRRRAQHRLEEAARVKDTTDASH

Compound: O=c1ccn([C@@H]2O[C@H](COP(=O)(O)OP(=O)(O)O)[C@@H](O)[C@H]2O)c(=O)[nH]1 [uridine diphosphate]
- IC50: 100 µM
